From patent publication US4795643A, “Medicament with a delayed release of active ingredient” (priority 1987, dated 1989)

Test: Dissolution Paddle Apparatus (U.S. Pharmacopoeia XX): rate of release of active ingredient from the capsule in water
Format: physicochemical
Protocol: For this purpose, the total amount of active ingredient released (cumulative values) is determined after fixed periods of time, in particular after 1, 2, 4, 6 and 8 hours, and this amount is expressed in % by weight of the amount of active ingredient contained in the capsule.

Row | release of ibuprofen (PEG 300-stearate (HLB=9 to 10) with Eudragit S 100 added, 2 hours) [%] | release of ibuprofen (PEG 1500-stearate (HLB=17) with Eudragit S 100 added, 8 hours) [%] | release of ibuprofen (mixture with PEG 300-stearate, 1 hour) [%] | release of ibuprofen (mixture with PEG 1500-stearate, 0.25 hour) [%] | SMILES | release of diltiazem.HCl (absence of a polymer, 1.5 hours) [%] | release of diltiazem.HCl (ethylcellulose, HLB of 10.5, 6 hours) [%] | release of diltiazem.HCl (ethylcellulose, HLB of 11.5, 3 hours) [%]
1 |  |  |  |  | COc1ccc(C2Sc3ccccc3N(CCN(C)C)C(=O)C2OC(C)=O)cc1.Cl (stereo not shown) [diltiazem.HCl, 3-acetoxy-5-(2-dimethylaminoethyl)-2,3-dihydro-2-(4-methoxyphenyl)-1,5-benzothiazepin-4(5H)-one hydrochloride] | 92.5 | 68.5 | 84.5
2 | 91.4 | 84.8 | 98.1 | 97 | CC(C)Cc1ccc(C(C)C(=O)O)cc1 (stereo not shown) [ibuprofen, 2-(4-isobutylphenyl)-propionic acid] |  |  | 
